Data from patent publication US20070098735A1, “Methods for the Elimination of Pathogens and Other Particulate Agents” (priority 2005, published 2007).

Columns and labels:
[1] = tested on: RAW 264.7 macrophages; experiment: In vitro macrophage phagocytosis of wound debris; assay type: cell-based, murine; conditions: RAW264.7, labeled wound debris, 37° C.
[2] = tested on: macrophages
[3] = tested on: lipid raft (LR) microdomain of the macrophage plasma membrane; experiment: Binding of exogenous HRP-labeled HSP70 to purified lipid raft fractions; set-up: species or system murine; conditions: HRP-labeled HSP70 100 μg/ml; with ganglioside GM1; Brij98 or Triton X-100
Experimental: Purification of lipid rafts. Lipid rafts were purified as DRMs (detergent resistant membrane) using non-ionic detergents following sucrose gradient centrifugation. […] After incubation, cells were washed 3× with PBS and lysed with 2 ml MES (4-morpholinoethanesulfonic acid) buffered saline (MBS; 150 mM NaCl, 20 mM MES, pH 6.5, […] and 5 mM iodoacetamide) containing 0.5% Triton X-100 or 1% for 30 minutes on ice or 7 minutes at 37° C. respectively. The cells were mixed with an equal volume of 90% sucrose in MEB buffer (150 mM NaCl, 20 mM MES [pH 6.5]) and placed at the bottom of the centrifuge tube. […] Fractions of 1 ml each were collected from the bottom of tube and each fraction was analyzed by SDS-PAGE and immunoblotting.
Briefly, RAW264.7 macrophages were treated with exogenous HRP-labeled HSP70 (100 μg/ml) or were left untreated for 60 minutes and washed with PBS three times to remove free HSPs. […] These fractions obtained (light: LR and heavy: non-LR) were then analyzed using immunoblotting to detect HRP activity of HSP70-HRP complexes or tested for the presence of an LR-associated ganglioside GM1 by using HRP-cholera toxin B. Similarly, these fractions were tested for the amount of cholesterol using (Biovision Research Products, CA). […]

[4] = tested on: full thickness surgical wounds on the dorsum of BALB/cJ mice; experiment: Closure of full thickness surgical wounds, percent wound closure; assay type: in vivo
Experimental: Surgery and Treatment. Mice were anesthetized using Ketamine (2.0 mg/mouse) and Xylazine (0.1 mg/mouse) were administered intraperitoneally (IP) and the dorsal skin was shaved. After sterile prepping of the area, a full thickness circular wound, 8 mm diameter, was made on the dorsal skin using a disposable biopsy punch (Miltex Inc, York, Pa.) on the midline of the dorsum approximately at the iliac crest. The mice were then randomly assigned into the treatment groups. Initial wound measurements were performed while the mice were still anesthetized. Mice were then treated on days 0, 2, 4, and 6 unless otherwise specified. All agents used as treatment were diluted in 0.5 ml of PBS and injected using a 25-gauge needle in the subcutaneous space in the nape of the neck. The surgical procedures, post-operative monitoring, and safety concerns were approved by the Institutional Animal Care and Usage Committee.
Measurements and Analysis. Wound healing of open wounds is a complex process with many parameters to consider. […] The wound surface area was determined by measuring the craniocaudal and lateromedial distances using vernier calipers in perpendicular axis on days 0, 2, 4, 6, 9, and 11 postoperatively unless noted. Changes in wound area were expressed as percent wound closure. Wound closure data was plotted as average percent wound closure ±SEM unless otherwise noted. All calculations and data analysis were performed using Microsoft Excel and Sigma Plot. Sigma Plot was used to perform Student's t-tests for reported P values.
Full thickness surgical wounds were created on the dorsum of BALB/cJ mice as described in Methods. Wounds were made on day 0. Subsequently, the wounds were treated with exogenous injections of HSP70, HSP90, gp96 (30 μg/dose) or buffer administered subcutaneously (SC) on days 0, 2, 4 and 6 following surgery (FIG. 6A). The wounds were measured on days 0, 2, 4, 6, 9, 11 unless otherwise noted. Wounds were measured serially, percent wound closure was calculated and plotted against time in order to quantitate the rate of healing by secondary intention. […] Data is plotted as average percent wound closure ±SEM on days indicated. Two mice from each treatment group (PBS (n=12), HSP70 (n=11), HSP90 (n=12), and gp96 (n=11)) were sacrificed for histology on days 2, 4, and 6 post-surgery (data not shown). The P values obtain using the Student's t-test.
Results are of average percent wound closure ±SEM on day 2 post surgery. The *P values were obtained using the Student's t-test by comparing HSP treatment to all of the non-HSP control treatments. The least significant P value was reported. […] Doses higher than 50 μg/dose were not tested.

HSP70: heat shock protein purified from murine livers, prepared as a complex with endogenous peptide
increase in phagocytosed wound debris compared to controls [1]: 25%
cytotoxicity of HSP-treatment (trypan blue exclusion) [2]: not cytotoxic
localisation of exogenously administered HSP70 [3]: co-localized on the LR-microdomain of the macrophage plasma membrane
wound closure compared to controls ([4]; 5 μg/dose and 50 μg/dose, day 2): significant wound closure
wound healing at Day 11 ([4]; 30 μg/dose SC on days 0, 2, 4 and 6): completely healed
dose with the most significant difference in wound closure ([4]; doses 5, 30, 50 μg/dose tested): 30 μg/dose
